Results as given in patent US11992536B2, “Dual-targeting compound and preparation method and application thereof” (YANTAI LANNACHENG BIOTECHNOLOGY CO., LTD., priority 2022, dated 2024).

Columns and labels:
HT1080-FAP tumor cells = assay: Cell uptake and blocking experiment in HT1080-FAP tumor cells; assay type: cell-based; settings: blocking experiment
FAP = target: T1, FAP (Homo sapiens, UniProt Q12884); assay: Cell binding experiment in HT1080-FAP tumor cells (FIG. 11B); settings: cell experiment of HT1080-FAP
T1 construct: expressed in transfected cells; host or cells: HT1080-FAP tumor cells
T1 sequence (Q12884 1-760): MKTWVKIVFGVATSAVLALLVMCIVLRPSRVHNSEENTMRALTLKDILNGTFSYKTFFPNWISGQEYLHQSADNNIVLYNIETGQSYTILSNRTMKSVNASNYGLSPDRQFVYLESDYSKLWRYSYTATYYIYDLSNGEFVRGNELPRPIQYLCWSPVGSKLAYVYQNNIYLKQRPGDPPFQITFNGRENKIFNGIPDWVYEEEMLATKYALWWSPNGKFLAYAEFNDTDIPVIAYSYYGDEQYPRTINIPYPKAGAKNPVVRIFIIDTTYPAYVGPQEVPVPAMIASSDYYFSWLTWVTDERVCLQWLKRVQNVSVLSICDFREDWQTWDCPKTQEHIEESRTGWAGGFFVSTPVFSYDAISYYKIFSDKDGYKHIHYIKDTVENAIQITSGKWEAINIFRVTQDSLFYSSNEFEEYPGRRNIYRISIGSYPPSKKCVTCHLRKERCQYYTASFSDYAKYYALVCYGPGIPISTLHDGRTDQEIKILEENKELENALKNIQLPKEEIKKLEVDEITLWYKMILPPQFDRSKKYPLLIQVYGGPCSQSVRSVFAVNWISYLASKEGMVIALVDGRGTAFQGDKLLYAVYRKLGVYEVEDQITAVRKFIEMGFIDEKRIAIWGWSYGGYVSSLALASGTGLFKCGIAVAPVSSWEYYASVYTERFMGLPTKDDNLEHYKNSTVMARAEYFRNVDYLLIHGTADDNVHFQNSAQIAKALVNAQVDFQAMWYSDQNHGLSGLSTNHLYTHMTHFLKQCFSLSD

| Molecule | blocking of the cell uptake of 68Ga-FAPI-RGD (HT1080-FAP tumor cells) | IC50 (FAP) |
| --- | --- | --- |
| N#C[C@@H]1CCCN1C(=O)CNC(=O)c1ccnc2ccc(OCCCN3CCN(C(=O)CN4CCN(CC(=O)O)CCN(CC(=O)O)CCN(CC(=O)O)CC4)CC3)cc12 [FAPI-02] | partially inhibited |  |
| C(RGDfK) | partially inhibited |  |
| N#C[C@@H]1CCCN1C(=O)CNC(=O)c1ccnc2ccc(OCCCN3CCN(C(=O)CCOCCOCCNC(=O)[C@H](CCC(=O)NCCOCCOCCC(=O)NCCCC[C@@H]4NC(=O)[C@@H](Cc5ccccc5)NC(=O)[C@H](CC(=O)O)NC(=O)CNC(=O)[C@H](CCCNC(=N)N)NC4=O)NC(=O)CN4CCN(CC(=O)O)CCN(CC(=O)O)CC4)CC3)cc12 [68Ga-FAPI-RGD, metal not drawn] |  | 11.2 nM |
